Measurements published in patent US8530427B2, “Methods for modulating resistance to apoptosis using KLK6” (Mayo Foundation for Medical Education and Research, priority 2010, dated 2013).

Experiments:
[1] = test system: Oli Neu oligodendrocyte cell line; assay: Oli Neu oligodendrocyte cell death, PI flow cytometry; format: cell-based, murine; details: 0.5 μM; 18 hour exposure
Description: KLK6 polypeptides promoted the survival of murine oligodendrocytes in a dose dependent fashion. […] Cell death was detected by PI labeling and quantitatively analyzed by flow cytometry.

[2] = test system: U251 human glioblastoma cell line; assay: U251 glioblastoma cell death / apoptosis by flow cytometry; format: cell-based; details: 1 μM
Procedure: The percent of cells labeled with propidium iodide (PI) after 24 hour exposure to staurosporine (1 μM) shown in histogram (FIG. 15A) was quantified by flow cytometry (FIG. 15B) and is taken as a measure of cell death. All samples were treated and analyzed in triplicate.
Levels of live (Annexin V− and Propidium iodide− (PI−)), early apoptotic (Annexin V+ and PI−), or dead (Annexin V+ and PI+) cells were determined by flow cytometry after a 24 hour period of exposure to 1 μM staurosporine (FIG. 16B) or staurosporine in the presence of 10 μg/mL KLK6 (FIG. 16C).
Dead cells were detected by labeling with 7-AAD. […] All expression data were normalized to the constitutively expressed gene GAPDH (*P<0.05, Students t-test).
KLK6 polypeptides promoted the survival of human glioma cells. […] Cell death was measured by flow cytometric detection of propidium iodide labeling.

murine splenocytes [3] = assay: Murine splenocyte/lymphocyte cell death, PI labeling by flow cytometry; format: cell-based; details: resting conditions; 1 or 10 μg/mL at plating; 24 and 72 hours
Description: The effect of KLK6 polypeptides on immune cell survival was examined using whole splenocyte populations derived from C57BL6/J or PAR1 deficient mice or using the Jurkat T-leukemic cell line (clone E6-1, TIB-152 American Type Culture Collection). Eight to 12 week old C57 mice were obtained from Jackson Laboratories. Mice deficient in PAR1^-/- (B6.129S4-[…]^tm1Ajc/J) were also obtained from Jackson and backcrossed to C57BL6/J for 10 generations such that C57 mice served as wild type controls in each experiment. Spleens were homogenized in RPMI-1640, red blood cells lysed with ammonium chloride buffer, and splenocytes cultured in tissue culture treated 96 well plates at a density of 7.5×10^5 cells/mL. All experiments were performed in serum free X-Vivo media (Lonza, Mapleton, Ill.) containing 2 mM Glutamax, 1 mM sodium pyruvate, 50 U/mL penicillin-streptomycin, 10 mM HEPES, 50 μM 2-β-mercaptoethanol, and 10 μM non-essential amino acids (Invitrogen). Jurkat T cells were maintained in log-phase growth in the same defined media. The cells were maintained at 37° C. in 95% air and 5% CO2. […] Cells were analyzed by flow cytometry using a FACSCalibur flow cytometer (BD Biosciences, Mountain View, Calif.). […] FlowJo software (Ashland, Oreg.) was used to quantify different cell populations in flow cytometry experiments. […]

murine splenocytes [4] = assay: Splenocyte proliferation, CFSE labeling by flow cytometry; format: cell-based

Row | Molecule | cell death induced by staurosporine [1] | cell death induced by staurosporine [2] | cell death / cell survival (murine splenocytes [3]) | percent of divided cells (murine splenocytes [4]; 10 μg/mL, 24 hours post-stimulation) | proliferation (murine splenocytes [4]; lower concentrations, or 72 hours post-exposure)
1 | CN[C@@H]1C[C@H]2O[C@@](C)([C@@H]1OC)n1c3ccccc3c3c4c(c5c6ccccc6n2c5c31)C(=O)NC4 [staurosporine] | shown to promote death of the Oli Neu oligodendrocyte cell line | induced a considerable increase in cell death |  |  | 
2 | KLK1 polypeptides: recombinant kallikrein family member KLK1, produced in an identical fashion to KLK6 |  |  | did not significantly impact cell survival | significant increase in the percent of divided cells | Significant differences in proliferation were not seen
